The source of these data is US20240287100A1, “ALKYLIDENE DERIVATIVES AS KRAS INHIBITORS” (NIKANG THERAPEUTICS, INC., priority 2021, published 2024).

In general, EC50 refers to the midpoint of the concentration-response curve.

The assay concerns the target T1, K-Ras G12D (Homo sapiens, UniProt P01116, G12D).
T1 construct: AGS (Cobioer, CBP60476) cell lines which harbor KRAS G12D mutation; host or cells: AGS
Briefly: p-ERK Cellular 1-Plate Assay (AlphaLISA SureFire Ultra p-ERK1/2) in AGS cells. The conditions noted are these: AGS cells harboring KRAS G12D mutation, 3 h at 37° C., 5,000 cells per well. The assay is classed as cell-based. Here is the method: p-ERK Cellular 1-Plate Assay
The ability of the compound of Formula (I) or a pharmaceutically acceptable salt thereof (test compound) to inhibit K-Ras G12D activity was tested using AGS (Cobioer, CBP60476) cell lines which harbor KRAS G12D mutation as described below.
AGS (Cobioer, CBP60476) were seeded in 384-well plates and cultured overnight (5,000 cells per well, 40 μl total volume). The following morning, cells were treated with test compound, with starting concentration at 10 μM and 3-fold dilution down to 0.5 nM for 3 h at 37° C. DMSO treatment served as control, p-ERK was then measured using AlphaLISA SureFire Ultra p-ERK1/2 (Thr202/Tyr204) Assay Kit (Perkin Elmer, cat #ALSU-PERK) following the manufacturer's instruction as follows.
Briefly, the culture medium was removed and 10 μl 1× lysis buffer was added to each well, followed by 10 minutes incubation on a plate shaker at room temperature. Acceptor mixture was prepared according to manufacturer's instruction. 5 μl acceptor mixture was added to the cell lysate and the plate was wrapped with foil, spun at 500 rpm for 10 s and incubated at RT for 60 min. Donor mixture was prepared under subdued light. 5 μl donor mixture was added to the cell lysate and the plate was spun at 500 rpm for 10s and incubated at RT for another 60 min. in the dark. Signal was then measured on a EnVision 2105 multimode plate reader. […]
For orientation: Alpha assays give light when donor and acceptor beads are brought close together.

T1 sequence (P01116 1-188 isoform P01116-2 G12D): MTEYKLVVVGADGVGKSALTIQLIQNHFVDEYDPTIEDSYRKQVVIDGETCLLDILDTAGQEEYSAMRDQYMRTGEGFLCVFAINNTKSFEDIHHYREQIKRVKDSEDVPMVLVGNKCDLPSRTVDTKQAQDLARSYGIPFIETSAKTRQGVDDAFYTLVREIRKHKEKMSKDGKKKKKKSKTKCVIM

In turn, `C#Cc1c(F)ccc2cccc(-c3ncc4c(N5CC6CCC(C)(C5)N6)nc(OC[C@]56CC(=C)CN5C[C@@H](F)C6)nc4c3F)c12` (stereo partly drawn) [Example 30, 7-(8-ethynyl-7-fluoronaphthalen-1-yl)-8-fluoro-2-(((2S,7aR)-2-fluoro-6-methylenetetrahydro-1H-pyrrolizin-7a(5H)-yl)methoxy)-4-(1-methyl-3,8-diazabicyclo[3.2.1]octan-3-yl)pyrido[4,3-d]pyrimidine] gave an EC50 of 170 nM. This counts as sub-micromolar.

In the case of `C#Cc1c(F)ccc2cccc(-c3ncc4c(N5CC6CCC5CN6)nc(OC[C@]56CC(=C)CN5C[C@H](F)C6)nc4c3F)c12` (stereo partly drawn) [Example 31, 2-(7-(8-ethynyl-7-fluoronaphthalen-1-yl)-8-fluoro-2-(((2R,7aR)-2-fluoro-6-methylenetetrahydro-1H-pyrrolizin-7a(5H)-yl)methoxy)pyrido[4,3-d]pyrimidin-4-yl)-2,5-diazabicyclo[2.2.2]octane], the EC50 was above 100 nM.
